Drawing on ChEMBL document CHEMBL1124385, “A new series of tricyclic (aryloximino)propanolamines displaying very high selective beta 2-blocking properties” (J Med Chem, 1989), this text covers IC50 and Ratio for 19 compounds.

Bounds are passed on as bounds.

Assay [1] addresses Beta-2 adrenergic receptor (Cavia porcellus, UniProt Q8K4Z4). Briefly: Beta-2 adrenergic receptor blocking was assessed from 50% inhibition of the isoproterenol submaximal response on isolated Guinea pig trachea(IT).
The target of assay [2] is Beta-1 adrenergic receptor (Cavia porcellus, UniProt B0FL73). Briefly: Beta-1 adrenergic receptor blocking was assessed from 50% inhibition of the isoproterenol submaximal response on isolated Guinea pig atria(IA).
Beta-1 adrenergic receptor, sequence (B0FL73 whole entry): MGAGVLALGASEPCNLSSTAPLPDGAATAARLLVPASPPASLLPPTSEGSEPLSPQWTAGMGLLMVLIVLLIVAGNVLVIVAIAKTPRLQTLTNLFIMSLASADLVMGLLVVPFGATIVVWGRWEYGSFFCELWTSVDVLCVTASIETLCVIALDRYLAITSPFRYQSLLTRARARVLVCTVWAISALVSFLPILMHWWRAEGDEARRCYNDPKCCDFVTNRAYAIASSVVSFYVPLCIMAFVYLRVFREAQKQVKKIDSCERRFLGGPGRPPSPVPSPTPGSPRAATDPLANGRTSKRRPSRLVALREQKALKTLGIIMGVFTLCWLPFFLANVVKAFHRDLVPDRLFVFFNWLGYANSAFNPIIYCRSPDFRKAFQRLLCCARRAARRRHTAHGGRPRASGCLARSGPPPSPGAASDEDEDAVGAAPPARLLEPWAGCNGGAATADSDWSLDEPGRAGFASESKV
The nature of assay [3]: Selectivity, ratio of IC50 on guinea pig atria and guinea pig trachea.

Beta-2 adrenergic receptor, sequence (Q8K4Z4 whole entry): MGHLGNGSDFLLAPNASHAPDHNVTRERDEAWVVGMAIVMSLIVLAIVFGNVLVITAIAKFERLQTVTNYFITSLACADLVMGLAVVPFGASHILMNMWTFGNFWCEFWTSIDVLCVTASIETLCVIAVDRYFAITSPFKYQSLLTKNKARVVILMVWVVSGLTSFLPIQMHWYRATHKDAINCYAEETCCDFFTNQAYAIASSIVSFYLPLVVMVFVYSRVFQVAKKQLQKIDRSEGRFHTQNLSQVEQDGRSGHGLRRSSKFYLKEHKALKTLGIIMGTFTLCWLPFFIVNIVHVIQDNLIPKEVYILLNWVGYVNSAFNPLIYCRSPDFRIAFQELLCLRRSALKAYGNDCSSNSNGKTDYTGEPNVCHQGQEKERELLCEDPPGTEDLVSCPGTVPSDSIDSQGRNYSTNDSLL

The term IC50 denotes the concentration at which inhibition is half-maximal. A higher IC50 goes with weaker potency in that assay. As for `CC(C)(C)NCC(O)CO/N=C1/c2ccccc2C2CCCCCC12OCCO` (stereo unspecified), the IC50 in assay [1] is 7.9 µM; in assay [2] it was over 1 µM.

On to `COC12CCCCC1c1ccc(F)cc1/C2=N/OCC(O)CNC(C)C` (stereo unspecified), for which the IC50 was 0.79 µM in assay [1] and 19 µM in assay [2].

Consider `COc1cc(CCNCC(O)CO/N=C2/c3cc(F)ccc3C3CCCCC23OC)cc(OC)c1` (stereo unspecified), for which the IC50 in assay [1] and in assay [2] was over 10 µM throughout.

Take `CC(C)(C)NCC(O)CO/N=C1/c2ccccc2C2CCCCC12O` (stereo unspecified): the IC50 in assay [1] stood at 31 µM; in assay [2], 2.8 µM. In assay [3], the Ratio was 0.09.

On to `CC(C)(C)NCC(O)CO/N=C1/c2ccccc2C2CCCCC12OCCO` (stereo unspecified), for which the results for the IC50 in assay [1] and in assay [2] were 3.1 µM and 0.85 µM, respectively. Further, the Ratio in assay [3] came out at 0.28.

`CC(C)NCC(O)CO/N=C1/c2ccccc2C2CCCCCC12O` (stereo unspecified): the concentration for half-maximal inhibition (IC50) in assay [1] is over 10 µM; in assay [2], 0.89 µM.

Turning to `CC(C)NCC(O)CO/N=C1/c2ccccc2C2CCCCC12O` (stereo unspecified), the IC50 in assay [1] and in assay [2] was over 10 µM each time.

Take `COC12CCCCC1c1ccccc1/C2=N/OCC(O)CNC(C)(C)C` (stereo unspecified): the results for the IC50 in assay [1] and in assay [2] were 0.035 µM and 12 µM, respectively. Moreover, in assay [3], the Ratio worked out at 33.

Consider `COc1cc(CCNCC(O)CO/N=C2/c3ccccc3C3CCCCCC23OC)cc(OC)c1` (stereo unspecified), for which the figures for the IC50 in assay [1] and in assay [2] were over 10 µM and 13 µM, respectively.

Consider `COc1cc(CCNCC(O)CO/N=C2/c3ccccc3C3CCCCCCCCCC23OC)cc(OC)c1` (stereo unspecified), for which the concentration for half-maximal inhibition (IC50) in assay [1] and in assay [2] was over 10 µM in each case.

Regarding `COc1cc(CCNCC(O)CO/N=C2/c3ccccc3C3CCCCC23OC)cc(OC)c1` (stereo unspecified), the IC50 in assay [1] and in assay [2] was over 10 µM in each case.

For `COC12CCCCCC1c1ccccc1/C2=N/OCC(O)CNC(C)C` (stereo unspecified), the figures for the IC50 in assay [1] and in assay [2] were 0.035 µM and 3 µM, respectively.

As to `CC(C)NCC(O)CO/N=C1/c2ccccc2C2CCCCC12OCCO` (stereo unspecified), the IC50 in assay [1] and in assay [2] was over 10 µM throughout.

Take `COC12CCCCC1c1ccc(F)cc1/C2=N/OCC(O)CNC(C)(C)C` (stereo unspecified): the IC50 in assay [1] was determined as 0.45 µM; in assay [2], 0.83 µM.

For the compound `CC(C)(C)NCC(O)CO/N=C1/c2ccccc2C2CCCCCC12O` (stereo unspecified), the IC50 in assay [1] came out at 0.44 µM; in assay [2], 0.34 µM.

As to `COC12CCCCCCCCCC1c1ccccc1/C2=N/OCC(O)CNC(C)C` (stereo unspecified), the IC50 in assay [1] and in assay [2] was over 10 µM throughout.

Regarding `CC(C)NCC(O)CO/N=C1/c2ccccc2C2CCCCCC12OCCO` (stereo unspecified), the IC50 in assay [1] and in assay [2] was over 10 µM throughout.

As to `COC12CCCCCC1c1ccccc1/C2=N/OCC(O)CNC(C)(C)C` (stereo unspecified), the IC50 in assay [1] came to 0.44 µM; in assay [2], 0.16 µM.

Turning to `COC12CCCCC1c1ccccc1/C2=N/OCC(O)CNC(C)C` (stereo unspecified), the values for the IC50 in assay [1] and in assay [2] were 0.3 µM and 1.2 µM, respectively.
